From PubChem BioAssay (NCI)
Values joined by “and” are separate entries in the source; they are usually repeats but may differ in a detail not shown here. Equal entries are not always repeated.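 How tested: cells in 96-well plates exposed to compound for 48 hours at five concentrations. The concentration for 50% growth inhibition is given as GI50. The concentration for full growth arrest is given as TGI.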

Assays:
Experiment in all cases: NCI-60 cell line screen, 48 h
SF-295 CNS = test system: SF-295 CNS
DMS 273 small cell lung = test system: DMS 273 small cell lung
SK-MEL-2 melanoma = test system: SK-MEL-2 melanoma
LXFL 529 NSCLC = test system: LXFL 529 NSCLC
KM12 colon = test system: KM12 colon
DLD-1 colon = test system: DLD-1 colon
OVCAR-3 ovarian = test system: OVCAR-3 ovarian
MALME-3M melanoma = test system: MALME-3M melanoma
RPMI-8226 leukemia = test system: RPMI-8226 leukemia
A498 renal = test system: A498 renal
MDA-MB-435 = test system: MDA-MB-435

COc1ccc(S(=O)(=O)N[C@H](C(=O)O)c2ccccc2)cc1
TGI (SF-295 CNS): > 100 µM | TGI (DMS 273 small cell lung): > 100 µM | TGI (SK-MEL-2 melanoma): > 100 µM | TGI (LXFL 529 NSCLC): > 100 µM | TGI (KM12 colon): > 100 µM | TGI (DLD-1 colon): > 100 µM | TGI (OVCAR-3 ovarian): > 100 µM | TGI (MALME-3M melanoma): > 100 µM | TGI (RPMI-8226 leukemia): > 100 µM

CN(C)CCn1cnc2ncccc2c1=O
TGI (SF-295 CNS): > 100 µM | TGI (DMS 273 small cell lung): > 100 µM | TGI (SK-MEL-2 melanoma): > 100 µM | TGI (LXFL 529 NSCLC): > 100 µM | TGI (KM12 colon): > 100 µM | TGI (DLD-1 colon): > 100 µM | TGI (OVCAR-3 ovarian): > 100 µM | TGI (MALME-3M melanoma): > 100 µM

CCN(CC)CC(=O)NC1c2ccccc2Oc2c(C)cccc21 (configuration not stated)
TGI (DMS 273 small cell lung): > 100 µM | TGI (LXFL 529 NSCLC): > 100 µM | TGI (DLD-1 colon): > 100 µM | TGI (RPMI-8226 leukemia): > 100 µM

COc1cc(-c2ccc(NC(=O)SCCC(=O)O)cc2OC)ccc1NC(=O)SCCC(=O)O
TGI (SF-295 CNS): > 100 µM | TGI (DMS 273 small cell lung): > 100 µM | TGI (SK-MEL-2 melanoma): > 100 µM | TGI (LXFL 529 NSCLC): > 100 µM | TGI (KM12 colon): > 100 µM | TGI (A498 renal): > 100 µM | TGI (OVCAR-3 ovarian): > 100 µM | TGI (MALME-3M melanoma): > 100 µM | TGI (RPMI-8226 leukemia): > 100 µM

CC(=O)OC(C)(C)/C=C/C(=O)[C@](C)(O)[C@H]1[C@H](O)C[C@@]2(C)[C@@H]3CC=C4[C@@H](C=C(O)C(=O)C4(C)C)[C@]3(C)C(=O)C[C@]12C
TGI (DMS 273 small cell lung): 0.203 µM and 0.0544 µM and 0.1 µM | TGI (SK-MEL-2 melanoma): 64.9 nM [middle of 4 runs] | GI50 (LXFL 529 NSCLC): 0.018 µM | TGI (LXFL 529 NSCLC): 0.305 µM and 0.385 µM | TGI (KM12 colon): 5.61 µM and 3.46 µM and 4.83 µM | TGI (DLD-1 colon): 4.25 µM and 4.43 µM and 2.19 µM | GI50 (MDA-MB-435): 0.0404 µM | TGI (MDA-MB-435): 0.194 µM | TGI (RPMI-8226 leukemia): 771 nM [middle of 4 runs]

COC1[C@H](NC(=O)OC(C)(C)C)C(=O)N1Cc1ccccc1 (some centres not stated)
TGI (SF-295 CNS): > 100 µM | TGI (DMS 273 small cell lung): > 100 µM | TGI (SK-MEL-2 melanoma): > 100 µM | TGI (LXFL 529 NSCLC): > 100 µM | TGI (KM12 colon): > 100 µM | TGI (DLD-1 colon): > 100 µM | TGI (A498 renal): > 100 µM | TGI (OVCAR-3 ovarian): > 100 µM | TGI (MALME-3M melanoma): > 100 µM | TGI (RPMI-8226 leukemia): > 100 µM

CCOC(=O)C(NO)C(Sc1ccccc1)c1ccc(OC)cc1 (configuration not stated)
TGI (SF-295 CNS): > 100 µM | TGI (DMS 273 small cell lung): > 100 µM | TGI (SK-MEL-2 melanoma): > 100 µM | TGI (LXFL 529 NSCLC): > 100 µM | TGI (KM12 colon): > 100 µM | TGI (DLD-1 colon): > 100 µM | TGI (OVCAR-3 ovarian): > 100 µM | TGI (MALME-3M melanoma): > 100 µM | TGI (RPMI-8226 leukemia): > 100 µM

CC1CCC(=O)C(C(O)CC2CC(=O)N(c3ccccc3)C(=O)C2)C1 (configuration not stated)
TGI (SF-295 CNS): > 100 µM | TGI (DMS 273 small cell lung): > 100 µM | TGI (LXFL 529 NSCLC): > 100 µM | TGI (KM12 colon): > 100 µM | TGI (DLD-1 colon): > 100 µM | TGI (A498 renal): > 100 µM | TGI (OVCAR-3 ovarian): > 100 µM | TGI (MALME-3M melanoma): > 100 µM | TGI (RPMI-8226 leukemia): > 100 µM

CCCCCCCCCCCCCCCCc1c(C(=O)OC)nc(NN)[nH]c1=O
TGI (SF-295 CNS): > 50 µM | TGI (DMS 273 small cell lung): > 50 µM | TGI (SK-MEL-2 melanoma): > 50 µM | TGI (LXFL 529 NSCLC): > 50 µM | TGI (KM12 colon): > 50 µM | TGI (DLD-1 colon): > 50 µM | TGI (A498 renal): > 50 µM | TGI (OVCAR-3 ovarian): > 50 µM | TGI (MALME-3M melanoma): > 50 µM | TGI (RPMI-8226 leukemia): > 50 µM

Clc1ccc(CCc2ccncn2)c(Cl)c1
TGI (SF-295 CNS): > 100 µM | TGI (DMS 273 small cell lung): > 100 µM | TGI (SK-MEL-2 melanoma): > 100 µM | TGI (LXFL 529 NSCLC): > 100 µM | TGI (KM12 colon): > 100 µM | TGI (DLD-1 colon): > 100 µM | TGI (A498 renal): > 100 µM | TGI (OVCAR-3 ovarian): > 100 µM | TGI (MALME-3M melanoma): > 100 µM | TGI (RPMI-8226 leukemia): > 100 µM

CCCCCCCCCCSC(=O)NC
TGI (SF-295 CNS): > 100 µM | TGI (DMS 273 small cell lung): > 100 µM | TGI (SK-MEL-2 melanoma): 69 µM | TGI (LXFL 529 NSCLC): > 100 µM | TGI (KM12 colon): > 100 µM | TGI (DLD-1 colon): > 100 µM | TGI (A498 renal): > 100 µM | TGI (OVCAR-3 ovarian): > 100 µM | TGI (MALME-3M melanoma): > 100 µM | TGI (RPMI-8226 leukemia): 48.8 µM
